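All cell lines were grown in 96-well plates and treated with compound for 48 hours. Here, GI50 denotes the concentration required for 50% inhibition of growth.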 Calls of active or inactive are those of the source. Cut-off read from the data, not from the text of the source: active = GI50 up to about 1.1 µM and inactive = higher.
Tests used:
Test in all cases: NCI anticancer screen, dose series, 48 h
[1] = test system: NCI-H522
[2] = test system: MOLT-4
[3] = test system: SK-MEL-2
[4] = test system: SN12C
[5] = test system: Malme-3M
[6] = test system: SK-MEL-28
[7] = test system: A549
[8] = test system: RXF 393
[9] = test system: HCT-116
[10] = test system: U-251
[11] = test system: CCRF-CEM
[12] = test system: MCF7
[13] = test system: SNB-75
[14] = test system: OVCAR-8
[15] = test system: HCC 2998
[16] = test system: NCI-H226
[17] = test system: LOX IMVI
[18] = test system: MDA-MB-231
[19] = test system: ACHN
[20] = test system: MDA-N

Compound	GI50 [1]	GI50 [2]	GI50 [3]	GI50 [4]	GI50 [5]	GI50 [6]	GI50 [7]	GI50 [8]	GI50 [9]	GI50 [10]	GI50 [11]	GI50 [12]	GI50 [13]	GI50 [14]	GI50 [15]	GI50 [16]	GI50 [17]	GI50 [18]	GI50 [19]	GI50 [20]
C=C1C(=O)OCC2C(C(=O)O)=CC3C(C)C(C)=CC123 (stereo not given)	2.31 µM (inactive)	7.82 µM (inactive)	7.21 µM (inactive)	8.73 µM (inactive)	7.33 µM (inactive)	3.52 µM (inactive)	20.7 µM (inactive)	7.4 µM (inactive)	9.48 µM (inactive)	11 µM (inactive)	7.74 µM (inactive)	8.13 µM (inactive)	13.9 µM (inactive)	9.59 µM (inactive)	10.2 µM (inactive)	19.1 µM (inactive)	8.13 µM (inactive)			
CC(=O)c1ccc2c(c1)c1c(C)c3c[n+](C)ccc3c(C)c1n2C	13.7 µM (inactive)	0.641 µM (active)	7.14 µM (inactive)	0.499 µM (active)	10.4 µM (inactive)	7.87 µM (inactive)	13.9 µM (inactive)	11.4 µM (inactive)	2.29 µM (inactive)	0.706 µM (active)	3.76 µM (inactive)	3.1 µM (inactive)	7.48 µM (inactive)	1.45 µM (inactive)	29.5 µM (inactive)	2.82 µM (inactive)	4.63 µM (inactive)			
CO/C(=N\N=C(/c1ccccc1)C(F)(F)F)c1ccncc1	26.6 µM (inactive)	19.1 µM (inactive)	25 µM (inactive)	66.8 µM (inactive)	72.8 µM (inactive)	57.7 µM (inactive)		16.3 µM (inactive)	28.3 µM (inactive)	48.4 µM (inactive)	17.4 µM (inactive)	38.6 µM (inactive)	34.9 µM (inactive)	69.5 µM (inactive)		17.2 µM (inactive)		39.3 µM (inactive)		
O=C1Oc2ccccc2N/C1=C/C(=O)c1ccc([N+](=O)[O-])cc1	23 µM (inactive)	> 100 µM (inactive)	> 100 µM (inactive)	> 100 µM (inactive)	> 100 µM (inactive)		> 100 µM (inactive)	> 100 µM (inactive)	> 100 µM (inactive)	> 100 µM (inactive)	61 µM (inactive)	> 100 µM (inactive)	> 100 µM (inactive)	> 100 µM (inactive)	> 100 µM (inactive)	> 100 µM (inactive)		> 100 µM (inactive)	> 100 µM (inactive)	
O=C(/C=C/c1ccccc1O)c1cccs1	> 100 µM (inactive)	> 100 µM (inactive)	> 100 µM (inactive)	> 100 µM (inactive)	> 100 µM (inactive)	> 100 µM (inactive)	> 100 µM (inactive)	> 100 µM (inactive)	> 100 µM (inactive)	> 100 µM (inactive)	> 100 µM (inactive)		> 100 µM (inactive)	> 100 µM (inactive)	> 100 µM (inactive)	> 100 µM (inactive)	> 100 µM (inactive)		> 100 µM (inactive)	
c1ccc(Nc2nnc(-c3ccccc3Nc3ccccc3-c3nnc(Nc4ccccc4)s3)s2)cc1	> 100 µM (inactive)	61.7 µM (inactive)	> 100 µM (inactive)		> 100 µM (inactive)	> 100 µM (inactive)		> 100 µM (inactive)	> 100 µM (inactive)	> 100 µM (inactive)	> 100 µM (inactive)	> 100 µM (inactive)	> 100 µM (inactive)	> 100 µM (inactive)	> 100 µM (inactive)	> 100 µM (inactive)	> 100 µM (inactive)		> 100 µM (inactive)	> 100 µM (inactive)
Oc1cccc2nc3cc(CN4CCOCC4)c(CN4CCOCC4)cc3nc12	30.9 µM (inactive)	31.9 µM (inactive)	> 100 µM (inactive)	79.3 µM (inactive)	57.5 µM (inactive)	> 100 µM (inactive)	40.5 µM (inactive)	77.3 µM (inactive)	52.2 µM (inactive)	33.6 µM (inactive)	44.9 µM (inactive)		> 100 µM (inactive)	44.7 µM (inactive)	50.8 µM (inactive)	68.7 µM (inactive)	38.3 µM (inactive)		47.8 µM (inactive)	
COc1ccc(C)cc1C1CCC(=O)O1 (stereo not given)	> 100 µM (inactive)	> 100 µM (inactive)	> 100 µM (inactive)	> 100 µM (inactive)	> 100 µM (inactive)	> 100 µM (inactive)	> 100 µM (inactive)	> 100 µM (inactive)	> 100 µM (inactive)	> 100 µM (inactive)	> 100 µM (inactive)		> 100 µM (inactive)	> 100 µM (inactive)	> 100 µM (inactive)	> 100 µM (inactive)	> 100 µM (inactive)		> 100 µM (inactive)	
Cc1cc(O)c(C(C)C)cc1C(=S)Nc1ccc(Cl)cc1	5.61 µM (inactive)	3.4 µM (inactive)	14.1 µM (inactive)		7.52 µM (inactive)	13.9 µM (inactive)			13 µM (inactive)	14.7 µM (inactive)	3.66 µM (inactive)	8.11 µM (inactive)		10.6 µM (inactive)	15.1 µM (inactive)		11.2 µM (inactive)		13 µM (inactive)	11.4 µM (inactive)
N#Cc1c(N)nc(Sc2ccccc2N)c(C#N)c1-c1ccccc1		11.6 µM (inactive)	10.9 µM (inactive)		16.9 µM (inactive)	28.2 µM (inactive)	19.4 µM (inactive)		15.7 µM (inactive)	19.6 µM (inactive)		10.6 µM (inactive)		20.2 µM (inactive)	15 µM (inactive)	47.2 µM (inactive)	12.9 µM (inactive)	14 µM (inactive)	19.9 µM (inactive)	
Cc1ccc2c(c1)Nc1ccccc1P2(=O)O	> 100 µM (inactive)	> 100 µM (inactive)	> 100 µM (inactive)	> 100 µM (inactive)	> 100 µM (inactive)	> 100 µM (inactive)	> 100 µM (inactive)	> 100 µM (inactive)	> 100 µM (inactive)	> 100 µM (inactive)	> 100 µM (inactive)		< 0.01 µM (active)	> 100 µM (inactive)	> 100 µM (inactive)	> 100 µM (inactive)	> 100 µM (inactive)	> 100 µM (inactive)	> 100 µM (inactive)	> 100 µM (inactive)
COc1cc2c(cc1OC)CC1c3cc(OC)c(OC)cc3CCN1CC2 (stereo not given)	> 100 µM (inactive)	> 100 µM (inactive)	> 100 µM (inactive)	> 100 µM (inactive)		> 100 µM (inactive)	> 100 µM (inactive)	83.6 µM (inactive)	26.3 µM (inactive)	52.8 µM (inactive)	> 100 µM (inactive)	> 100 µM (inactive)	> 100 µM (inactive)	95.5 µM (inactive)	> 100 µM (inactive)	19.6 µM (inactive)		> 100 µM (inactive)	1.64 µM (inactive)	
COP(=O)(OC)/C(=C\C1=CN(C(c2ccccc2)(c2ccccc2)c2ccccc2)CN1)NC=O	17 µM (inactive)	12.8 µM (inactive)	15.9 µM (inactive)	18.3 µM (inactive)		17.7 µM (inactive)	14.2 µM (inactive)		15.6 µM (inactive)	16.3 µM (inactive)			20.2 µM (inactive)	21.3 µM (inactive)	21.1 µM (inactive)	21.2 µM (inactive)	12.8 µM (inactive)	16.8 µM (inactive)	15.1 µM (inactive)	15.1 µM (inactive)
OC1CN2CCS[C@H]2C(O)C1O (stereo not given in full)	> 100 µM (inactive)	> 100 µM (inactive)	> 100 µM (inactive)		> 100 µM (inactive)	> 100 µM (inactive)	> 100 µM (inactive)	> 100 µM (inactive)	> 100 µM (inactive)	> 100 µM (inactive)	> 100 µM (inactive)		> 100 µM (inactive)	> 100 µM (inactive)	> 100 µM (inactive)	> 100 µM (inactive)	> 100 µM (inactive)	> 100 µM (inactive)	> 100 µM (inactive)	
Cc1ccc(Nc2nc(=S)[nH]c3[nH]ncc23)cc1	32.2 µM (inactive)	> 100 µM (inactive)	82.4 µM (inactive)	71.8 µM (inactive)	> 100 µM (inactive)	48.3 µM (inactive)	61.2 µM (inactive)	> 100 µM (inactive)	91.2 µM (inactive)	64.7 µM (inactive)	1.39 µM (inactive)	37.3 µM (inactive)	> 100 µM (inactive)	> 100 µM (inactive)	77.3 µM (inactive)	> 100 µM (inactive)	37.5 µM (inactive)	> 100 µM (inactive)	48.4 µM (inactive)	
Cc1ccc(/N=N/c2c(O)ccc3cc(S(=O)(=O)O)ccc23)cc1	> 100 µM (inactive)	> 100 µM (inactive)	> 100 µM (inactive)	> 100 µM (inactive)	> 100 µM (inactive)	> 100 µM (inactive)	> 100 µM (inactive)	> 100 µM (inactive)	24.2 µM (inactive)	> 100 µM (inactive)	> 100 µM (inactive)		34.8 µM (inactive)	> 100 µM (inactive)		> 100 µM (inactive)	18.2 µM (inactive)	18.8 µM (inactive)	> 100 µM (inactive)	> 100 µM (inactive)
C#C[C@H]1CCCCCC1O (stereo not given in full)	> 100 µM (inactive)	> 100 µM (inactive)	> 100 µM (inactive)	> 100 µM (inactive)	65.6 µM (inactive)	> 100 µM (inactive)	> 100 µM (inactive)	> 100 µM (inactive)	> 100 µM (inactive)	> 100 µM (inactive)	59 µM (inactive)		> 100 µM (inactive)	> 100 µM (inactive)	> 100 µM (inactive)	> 100 µM (inactive)	29 µM (inactive)		> 100 µM (inactive)	

Reference: ChEMBL document CHEMBL1201862, “PubChem BioAssay data set” (2004)
